# Test results reported in patent publication US20250367209A1 (SOUTHERN RESEARCH INSTITUTE, priority 2022, published 2025).
# Entries after “also recorded” stand apart in the source; their conditions may differ.
# What was measured:
# Tau-LckSH3 interaction = Tau-LckSH3 interaction (Homo sapiens (Human), UniProt P10636); assay: Tau-Flag PLA, Tau-LckSH3; assay type: cell-based; conditions: 15 μM, HEK-293 cells
# Protocol: Tau-Flag PLA for Tau-SH3 interactions: To clone the SH3 constructs, a C-terminal Flag tag was added to the Tau construct using PCR, then the Tau sequence was replaced with the desired SH3 domain using In-Fusion HD cloning kit (Takara Bio). Next, an N-terminal GST tag was added to help expression using In-Fusion, resulting in GST-SH3-Flag plasmids. As a negative control, restriction enzymes were used to remove the FynSH3 from the FynSH3 construct, resulting in GST-Flag. All sequences were confirmed with Sanger sequencing, and expression in HEK-293 cells was verified by western blot and immunocytochemistry. Plating and experimental timeline was the same as above. Cells were transfected with 125 ng of Tau-mKate2 and 500 ng SH3 plasmid with 1.5 μL Fugene. compound no. 69 was applied to final concentration 15 μM. For Tau-SH3 PLA, we used Dako Tau (1:1000) and Flag (1:1000) primary antibodies.
# [1] = tested on: endogenous Tau-Fyn interaction; assay: Endogenous Tau-Fyn PLA in primary neurons; assay type: cell-based, rat; conditions: 3 μM and 15 μM, 24 hours
# Protocol: Endogenous Tau-Fyn PL, in primary neurons: All PLA protocols were adapted from our recent study (Rush, et al. (2020) Neurobiol Dis 134, 104668).
# For the endogenous Tau-Fyn PLA, neurons were grown on coverslips as described above to DIV20, then treated with compound no. 69 or vehicle, and fixed with PFA 24 hours later. Dako Tau (1:1000) and Fyn15 (1:250) antibodies were used. Duolink In Situ Fluorescence kit was used for PLA. Briefly, coverslips with fixed cells were permeabilized for 10 minutes in 0.25% Triton X-100, then blocked in 5% NGS in PBS for one hour at room temperature. Coverslips were incubated overnight at 4° C. with primary antibody in 1% NGS, then washed 3×5 minutes in PBS. Coverslips were then incubated for 1 hour at 37° C. in PLA probes (Anti-Mouse minus, Anti-Rabbit plus). […] To quantify PLA puncta, PLA fluorescence was thresholded, then ImageJ particle analyzer was run, specifying size and circularity to exclude any non-punctate signal. Quantified values were then normalized to values for vehicle-treated slides from that experiment. […]
# FynSH3 = FynSH3 (Homo sapiens (Human), UniProt P06241); assay: Isothermal titration calorimetry, FynSH3; assay type: binding
# FynSH3, sequence (P06241 82-143): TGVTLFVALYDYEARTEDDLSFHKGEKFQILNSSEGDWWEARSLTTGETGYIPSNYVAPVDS
# Text: Human Fyn-SH3 domain with GST-tag at the N-terminus and a Strep-tag II ([…]) at the C-terminus (GST-Fyn-SH3-Strep) was cloned into pPR-IBA1 vector (IBA Lifesciences) (Cochran, et al. (2014) J. Biomol. Screen. 19, 1338-1349). Codon-optimized human 4R2N Tau for E. coli expression with a Strep-tag II at the C-terminus (His-Tau-Strep) was cloned into pET-28a(+) vector (Novagen). The constructs were transformed into E. coli BL-21(DE3) competent cells (Novagen). For GST-Fyn-SH3-Strep purification, a single colony was inoculated in Luria-Bertani (LB) broth at 37° C. overnight. 10 mL cell culture was added into 500 mL LB medium and cultured at 37° C. 0.5 mM Isopropyl β-D-1-thiogalactopyranoside (IPTG) was added into the culture when OD600 reached 0.7. Cells were further cultured at 25° C. for 4 hours and harvested. Cell pellet was resuspended in lysis buffer (20 mM Tris pH 7.9, 300 mM NaCl, 1 mM TCEP) with 1 tablet of EDTA-free protease inhibitors (ThermoFisher) and 1 mg/ml lysozyme. Cells were disrupted by sonication and debris was removed by centrifugation at 9500 rpm for 1 hour. […]
# Purified full-length Tau and FynSH3 were dialyzed into 20 mM Tris and 150 mM NaCl, pH 8.0 with Slide-A-Lyzer G2 Dialysis Cassettes with 10K MWCO (ThermoFisher #87729). […] Protein concentrations were measured on a Nanodrop2000 (ThermoFisher) based on absorbance at 280 nm. […]
# Tau-LckSH3 interaction, sequence (P10636 other isoform, or with tags, fused parts or gaps): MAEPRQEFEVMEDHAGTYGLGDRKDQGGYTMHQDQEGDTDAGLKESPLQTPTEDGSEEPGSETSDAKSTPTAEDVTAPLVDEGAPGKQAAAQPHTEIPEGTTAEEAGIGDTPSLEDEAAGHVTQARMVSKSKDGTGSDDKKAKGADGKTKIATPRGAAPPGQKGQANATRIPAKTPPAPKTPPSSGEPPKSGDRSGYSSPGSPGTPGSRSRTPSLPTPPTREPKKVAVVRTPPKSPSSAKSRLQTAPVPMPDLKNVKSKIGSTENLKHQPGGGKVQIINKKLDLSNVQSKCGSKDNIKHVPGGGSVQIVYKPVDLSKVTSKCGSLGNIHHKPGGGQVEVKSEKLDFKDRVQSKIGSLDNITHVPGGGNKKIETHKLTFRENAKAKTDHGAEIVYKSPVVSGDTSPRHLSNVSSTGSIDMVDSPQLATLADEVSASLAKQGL
structure (smiles),measurement,setting,value
O=C(CN1CCOc2ccccc21)Nc1nnc(-c2ccccn2)[nH]1 [compound no. 69],"Tau-LckSH3 interaction, Tau-Flag PLA",Tau-LckSH3 interaction,strongly inhibited; also recorded: inhibits Tau-LckSH3 interaction
same,"endogenous Tau-Fyn interaction, PLA in primary neurons",[1],inhibited endogenous Tau-Fyn interaction at both 3 μM and 15 μM; also recorded: reduces endogenous Tau-Fyn PLA
same,"binding to FynSH3, ITC",FynSH3,did not bind FynSH3
